Reference: PubChem BioAssay (NCI)
Values joined by “and” are separate entries in the source; they are usually repeats but may differ in a detail not shown here. Equal values may be shown once.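 Cells were grown in 96-well plates and exposed to each compound for 48 hours at five concentrations; endpoints were interpolated linearly between bracketing concentrations, or set to the highest concentration if not reached. At the GI50, growth is halved. TGI: concentration producing complete growth inhibition.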

Assays:
Assay in all cases: growth of human tumour cells (NCI), 48 h
UACC-62 melanoma = test system: UACC-62 melanoma
MALME-3M melanoma = test system: MALME-3M melanoma
SNB-19 CNS = test system: SNB-19 CNS
COLO 205 colon = test system: COLO 205 colon
A498 renal = test system: A498 renal
SK-MEL-28 melanoma = test system: SK-MEL-28 melanoma
SK-MEL-5 melanoma = test system: SK-MEL-5 melanoma
EKVX NSCLC = test system: EKVX NSCLC
OVCAR-8 ovarian = test system: OVCAR-8 ovarian
PC-3 prostate = test system: PC-3 prostate

Structure (SMILES)	TGI (UACC-62 melanoma)	TGI (MALME-3M melanoma)	TGI (SNB-19 CNS)	TGI (COLO 205 colon)	TGI (A498 renal)	TGI (SK-MEL-28 melanoma)	TGI (SK-MEL-5 melanoma)	TGI (EKVX NSCLC)	TGI (OVCAR-8 ovarian)	TGI (PC-3 prostate)	GI50 (UACC-62 melanoma)	GI50 (MALME-3M melanoma)	GI50 (SNB-19 CNS)	GI50 (COLO 205 colon)	GI50 (A498 renal)	GI50 (SK-MEL-28 melanoma)	GI50 (SK-MEL-5 melanoma)	GI50 (EKVX NSCLC)	GI50 (OVCAR-8 ovarian)	GI50 (PC-3 prostate)
CC(C)[C@](O)(C(=O)OCC1=CC[N+]2([O-])CC[C@@H](O)[C@@H]12)[C@H](C)O (some centres not stated)	9920 µM	> 10000 µM	> 10000 µM	> 10000 µM	> 10000 µM	> 10000 µM	> 10000 µM	> 10000 µM	> 7940 µM	> 10000 µM										
Clc1nc(Cl)c2ncn(C/C=C/Cn3cnc4c(Cl)nc(Cl)nc43)c2n1	32.1 µM	52.5 µM	38 µM	35.5 µM	41.2 µM	33 µM	31.1 µM	36.9 µM	21 µM	33.2 µM	17.5 µM	31.2 µM	19.1 µM	15.1 µM	21.5 µM	17.5 µM	16.5 µM	20.5 µM	6.11 µM	17.5 µM
COc1ccc(-c2ccc3ncc4c(c3c2)n(-c2ccc(N3CCNCC3)c(C(F)(F)F)c2)c(=O)n4C)cn1	0.0269 µM and 0.0286 µM	0.03 µM and 0.0353 µM	1.2 µM and 0.254 µM		< 0.01 µM and 0.012 µM	0.101 µM and 0.0648 µM	0.0774 µM and 0.038 µM	0.0379 µM and 0.258 µM	0.332 µM and 0.396 µM	0.799 µM and 1.12 µM	< 0.01 µM and 0.00599 µM	< 0.01 µM and 0.00404 µM	< 0.01 µM and 0.00778 µM	< 0.01 µM and 0.00994 µM	< 0.01 µM and 0.00224 µM	< 0.01 µM and 0.00679 µM	0.0131 µM and 0.0102 µM	< 0.01 µM and 0.00426 µM	< 0.01 µM and 0.00948 µM	< 0.01 µM and 0.00281 µM
OC(COc1cccc2ccccc12)CN1CCN(c2ccc(Cl)cc2)CC1 (configuration not stated)	> 100 µM	64.7 µM	45.4 µM	> 100 µM	92 µM	71.6 µM	> 100 µM	> 100 µM	41 µM	46.2 µM	23.3 µM	22.5 µM	17 µM	> 100 µM	21.3 µM	26.9 µM	55.8 µM	21.3 µM	15.2 µM	15.3 µM
C=CC[N+]1(CCO)CCN=C1CCCCCCCCCCCCC (configuration not stated)	3.52 µM	3.18 µM	2.99 µM	3.08 µM	8.26 µM	3.12 µM	2.95 µM	2.97 µM		2.85 µM	1.82 µM	1.6 µM	1.63 µM	1.7 µM	2.09 µM	1.75 µM	1.6 µM	1.62 µM		1.37 µM
COc1cc2cn3c4ccc(O)cc4nc(N)c3c2cc1OC	1.63 µM	16.8 µM	16.7 µM	6.6 µM	1.06 µM	15.8 µM	0.505 µM	15.4 µM	12.6 µM	14.7 µM	0.0705 µM	0.792 µM	0.211 µM	0.342 µM	0.141 µM	0.0518 µM	0.0734 µM	2.79 µM	0.773 µM	0.474 µM
